15 molecules from ChEMBL document CHEMBL1159362, “New cytotoxic indole alkaloids from Tabernaemontana calcarea from the Madagascar rainforest” (J Nat Prod, 2003) can be followed below.

Molecules are shown by their SMILES. In brackets after ≈: the same amount, converted by molar mass.

The test system of the experiment is A2780. Put plainly: Cytotoxicity against human A2780 cells. The format is functional, cell-based.

What is called IC50 is the point on the concentration scale where inhibition reaches its midpoint. The low end stands for inhibition by little substance, the high end for a need for much substance. `COC(=O)[C@@]12C[C@@H]3C[C@H]([C@@H](C)O)[C@@H]1N(CC[C@]1(O)C2=Nc2ccc(OC)cc21)C3` had an IC50 of 10.8 µg/mL (≈ 27 µM). `CC[C@H]1C[C@H]2CC3c4[nH]c5cc(OC)ccc5c4CCN(C2)[C@H]31` displayed an IC50 of 4.9 µg/mL (≈ 15.8 µM).

In turn, `COC(=O)[C@@]12C[C@@H]3C[C@H]([C@@H](C)O)[C@@H]1N(CCc1c2[nH]c2ccc(OC)cc12)C3=O` yielded an IC50 of 6.8 µg/mL (≈ 17.1 µM). For the molecule `C[C@@H](O)[C@@H]1C[C@H]2C[C@H]3c4[nH]c5ccccc5c4CCN(C2)[C@@H]13`, inhibition was half-maximal at 8.9 µg/mL (≈ 30 µM) (IC50).

In turn, `CC[C@H]1C[C@@H]2CN3CCc4c([nH]c5cc(O)ccc45)[C@](C(=O)OC)(C2)[C@H]13` showed an IC50 of 4.8 µg/mL (≈ 13.5 µM).

Regarding `CC[C@H]1C[C@H]2C[C@H]3c4[nH]c5cc(OC)ccc5c4CCN(C2O)[C@@H]13` (mixture of isomers), the IC50 was 7.9 µg/mL. For the molecule `COC(=O)[C@@]12C[C@@H]3C[C@H]([C@@H](C)O)[C@@H]1N(CCc1c2[nH]c2ccc(OC)cc12)C3` [19(R)-HEYNEANINE], the IC50 was found to be 4 µg/mL (≈ 10.4 µM). Take `CC[C@H]1C[C@@H]2CN3CCc4c([nH]c5ccccc45)[C@](C(=O)OC)(C2)[C@H]13` [CORONARIDINE]: the IC50 came out at 9.9 µg/mL (≈ 29.3 µM). For the molecule `C[C@H](O)[C@@H]1C[C@H]2C[C@H]3c4[nH]c5ccccc5c4CCN(C2)[C@@H]13` [HEYNEANINE], the IC50 was determined as 10.7 µg/mL (≈ 36.1 µM). As for `CC[C@H]1C[C@H]2C[C@H]3c4[nH]c5ccc(OC)cc5c4CCN(C2)[C@@H]13` [IBOGAINE], the IC50 was 10.2 µg/mL (≈ 32.9 µM). Regarding `CC[C@H]1C[C@H]2C[C@H]3c4[nH]c5ccccc5c4CCN(C2)[C@@H]13` [IBOGAMINE], it took 3.5 µg/mL (≈ 12.5 µM) to reach half-maximal inhibition (IC50).

As for `CC[C@H]1C[C@@H]2CN3CCc4c([nH]c5cc(OC)ccc45)[C@](C(=O)OC)(C2)[C@H]13` [ISOVOACANGINE], the IC50 amounted to 9.4 µg/mL (≈ 25.5 µM). In the case of `COC(=O)[C@@]12C[C@@H]3C[C@H]([C@H](C)O)[C@@H]1N(CCc1c2[nH]c2cc(OC)ccc12)C3` [ISOVOACRISTINE] it was 9.6 µg/mL (≈ 25 µM); in that of `CC[C@H]1C[C@@H]2CN3CCc4c([nH]c5ccc(OC)cc45)[C@](C(=O)OC)(C2)[C@H]13` [VOACANGINE], 10.4 µg/mL (≈ 28.2 µM); in that of `COC(=O)[C@@]12C[C@@H]3C[C@H]([C@H](C)O)[C@@H]1N(CCc1c2[nH]c2ccc(OC)cc12)C3` [VOACRISTINE], 11 µg/mL (≈ 28.6 µM).
